In ChEMBL document CHEMBL1201862, “PubChem BioAssay data set” (2004):
The source made the active and inactive calls.

Experiments:
P388/ADR = assay: cells; assay type: functional; settings: Mus musculus, P388/ADR
P388 = assay: cells; assay type: functional; settings: Mus musculus, P388
SN12K1 = assay: cells; assay type: functional; settings: Homo sapiens
Protein skinhead-1 = biological target: T1, Protein skinhead-1 (Caenorhabditis elegans, UniProt P34707); assay type: functional
T1 sequence (P34707 whole entry): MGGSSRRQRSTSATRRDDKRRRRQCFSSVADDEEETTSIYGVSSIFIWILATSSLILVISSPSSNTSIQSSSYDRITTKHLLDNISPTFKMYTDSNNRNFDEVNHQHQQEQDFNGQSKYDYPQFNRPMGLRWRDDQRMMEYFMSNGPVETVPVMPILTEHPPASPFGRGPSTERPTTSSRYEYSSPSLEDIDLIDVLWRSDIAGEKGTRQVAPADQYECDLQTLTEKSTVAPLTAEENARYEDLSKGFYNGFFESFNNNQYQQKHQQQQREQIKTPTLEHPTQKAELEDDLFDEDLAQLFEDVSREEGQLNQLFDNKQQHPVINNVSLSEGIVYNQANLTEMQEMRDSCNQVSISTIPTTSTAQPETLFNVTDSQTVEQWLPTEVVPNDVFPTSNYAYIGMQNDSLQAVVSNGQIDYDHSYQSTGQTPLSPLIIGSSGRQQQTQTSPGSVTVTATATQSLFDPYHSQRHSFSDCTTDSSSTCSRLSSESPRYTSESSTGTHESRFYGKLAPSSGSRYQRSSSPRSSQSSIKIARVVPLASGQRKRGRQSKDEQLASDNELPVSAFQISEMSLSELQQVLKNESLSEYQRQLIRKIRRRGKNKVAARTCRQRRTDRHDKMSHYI

H4 = assay: Luminescence Cell-Based Dose Response HTS to Identify Activators of 5'UTR Stem-Loop Driven Prion Protein mRNA Translation in H4 Neuroglioblastoma Cells. [Related pubchem assays: 1829 (Project Summary), 1814 (Primary HTS)]; assay type: functional; settings: Homo sapiens
[1] = Luminescence Cell-Based Dose Confirmation HTS to Identify Activators of 5'UTR Stem-Loop Driven Alpha-Synuclein mRNA Translation in H4 Neuroglioblastoma Cells. [Related pubchem assays: 1829 (Project Summary), 1814 (Primary HTS)]; assay type: functional
[2] = Luminescence Cell-Based Dose Response HTS to Identify Activators of Luciferase Translation or Activity in H4 […] Cells. [Related pubchem assays: 1829 (Project Summary), 1814 (Primary HTS)]; assay type: functional
[3] = P. falciparum Dd2 growth inhibitors, dose response, SYBR Green, cherry-picked samples (AID 1159567); assay type: functional, cell-based
[4] = microbe, parasite or virus in culture; assay type: functional; settings: Mycobacterium tuberculosis
[5] = Luminescence Cell-Based Dose Retest to Confirm Inhibitors of Cancer Stem Cells. [Related pubchem assays (depositor defined):AID2717, AID2721]; assay type: functional; settings: Homo sapiens
Fatty acid synthase [6] = biological target: T2, Fatty acid synthase (Homo sapiens, UniProt P49327); assay: inhibition of human FAS-TE enzyme activity – biochemical, endpoint fluorescence intensity, uHTS hits, dose response (AID 624327); assay type: functional;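 note: fluorescence from hydrolysis of an O-methyl fluorescein acyl ester substrate by the enzyme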
Fatty acid synthase [7] = biological target: T2, Fatty acid synthase; assay: inhibition of human FAS-TE enzyme activity – biochemical, kinetic fluorescence intensity, dose response (AID 624326); assay type: functional;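 note: rate of fluorescence rise from hydrolysis of a fluorogenic O-methyl fluorescein ester substrate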
[8] = viability of HCT116 lacking mutant beta-catenin – cell-based, human colon tumor, dose response (AID 1045); assay type: functional;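 note: HCT116 colon tumor cells with beta catenin knocked out; cells exposed to compound for 60 hours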
[9] = viability of PTEN-deleted HCT116 cells – cell-based, HCT116 PTEN knockout, dose response (AID 1047); assay type: functional;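 note: HCT116 colon tumor cells with PTEN knocked out; cells exposed to compound for 60 hours before readout; potency for loss of cell viability measured by luminescence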
Streptococcus = assay: GAS UMAA2166 growth inhibition – luminescence, BacTiterGlo, counter-screen for streptokinase expression inhibitor project, dose response (AID 1915); assay type: functional, organism-based;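 note: potency for reduction of bacterial viability or growth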
Streptokinase A = biological target: T3, Streptokinase A (Streptococcus pyogenes serotype M1, UniProt P10520); assay: viability-normalized secreted streptokinase activity reduction – plasminogen activation absorbance, OD405, dose response (AID 1914); assay type: functional, Streptococcus pyogenes M1 GAS;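 note: secreted streptokinase activity via plasminogen activation per viability signal from cell pellet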
T3 sequence (P10520 whole entry): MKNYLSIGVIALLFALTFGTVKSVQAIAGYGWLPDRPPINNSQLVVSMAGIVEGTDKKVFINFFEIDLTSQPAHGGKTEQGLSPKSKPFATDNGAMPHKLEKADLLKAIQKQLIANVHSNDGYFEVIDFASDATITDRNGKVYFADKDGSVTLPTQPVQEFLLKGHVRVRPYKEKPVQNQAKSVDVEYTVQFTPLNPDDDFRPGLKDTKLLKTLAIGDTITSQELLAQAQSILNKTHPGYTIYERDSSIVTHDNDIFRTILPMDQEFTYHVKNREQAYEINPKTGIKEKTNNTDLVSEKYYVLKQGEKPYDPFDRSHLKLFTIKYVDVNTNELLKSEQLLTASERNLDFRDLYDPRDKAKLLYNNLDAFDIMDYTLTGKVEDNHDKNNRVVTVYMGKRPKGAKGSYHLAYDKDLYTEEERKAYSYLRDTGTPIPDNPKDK

[10] = system: Streptococcus sp. 'group A'; assay: Streptococcus pyogenes SK(-)GAS viability under kanamycin – luminescence, BacTiterGlo, confirmation, counter-screen for streptokinase expression inhibitor project, dose response (AID 1900); assay type: functional, organism-based

T2 sequence (P49327 whole entry): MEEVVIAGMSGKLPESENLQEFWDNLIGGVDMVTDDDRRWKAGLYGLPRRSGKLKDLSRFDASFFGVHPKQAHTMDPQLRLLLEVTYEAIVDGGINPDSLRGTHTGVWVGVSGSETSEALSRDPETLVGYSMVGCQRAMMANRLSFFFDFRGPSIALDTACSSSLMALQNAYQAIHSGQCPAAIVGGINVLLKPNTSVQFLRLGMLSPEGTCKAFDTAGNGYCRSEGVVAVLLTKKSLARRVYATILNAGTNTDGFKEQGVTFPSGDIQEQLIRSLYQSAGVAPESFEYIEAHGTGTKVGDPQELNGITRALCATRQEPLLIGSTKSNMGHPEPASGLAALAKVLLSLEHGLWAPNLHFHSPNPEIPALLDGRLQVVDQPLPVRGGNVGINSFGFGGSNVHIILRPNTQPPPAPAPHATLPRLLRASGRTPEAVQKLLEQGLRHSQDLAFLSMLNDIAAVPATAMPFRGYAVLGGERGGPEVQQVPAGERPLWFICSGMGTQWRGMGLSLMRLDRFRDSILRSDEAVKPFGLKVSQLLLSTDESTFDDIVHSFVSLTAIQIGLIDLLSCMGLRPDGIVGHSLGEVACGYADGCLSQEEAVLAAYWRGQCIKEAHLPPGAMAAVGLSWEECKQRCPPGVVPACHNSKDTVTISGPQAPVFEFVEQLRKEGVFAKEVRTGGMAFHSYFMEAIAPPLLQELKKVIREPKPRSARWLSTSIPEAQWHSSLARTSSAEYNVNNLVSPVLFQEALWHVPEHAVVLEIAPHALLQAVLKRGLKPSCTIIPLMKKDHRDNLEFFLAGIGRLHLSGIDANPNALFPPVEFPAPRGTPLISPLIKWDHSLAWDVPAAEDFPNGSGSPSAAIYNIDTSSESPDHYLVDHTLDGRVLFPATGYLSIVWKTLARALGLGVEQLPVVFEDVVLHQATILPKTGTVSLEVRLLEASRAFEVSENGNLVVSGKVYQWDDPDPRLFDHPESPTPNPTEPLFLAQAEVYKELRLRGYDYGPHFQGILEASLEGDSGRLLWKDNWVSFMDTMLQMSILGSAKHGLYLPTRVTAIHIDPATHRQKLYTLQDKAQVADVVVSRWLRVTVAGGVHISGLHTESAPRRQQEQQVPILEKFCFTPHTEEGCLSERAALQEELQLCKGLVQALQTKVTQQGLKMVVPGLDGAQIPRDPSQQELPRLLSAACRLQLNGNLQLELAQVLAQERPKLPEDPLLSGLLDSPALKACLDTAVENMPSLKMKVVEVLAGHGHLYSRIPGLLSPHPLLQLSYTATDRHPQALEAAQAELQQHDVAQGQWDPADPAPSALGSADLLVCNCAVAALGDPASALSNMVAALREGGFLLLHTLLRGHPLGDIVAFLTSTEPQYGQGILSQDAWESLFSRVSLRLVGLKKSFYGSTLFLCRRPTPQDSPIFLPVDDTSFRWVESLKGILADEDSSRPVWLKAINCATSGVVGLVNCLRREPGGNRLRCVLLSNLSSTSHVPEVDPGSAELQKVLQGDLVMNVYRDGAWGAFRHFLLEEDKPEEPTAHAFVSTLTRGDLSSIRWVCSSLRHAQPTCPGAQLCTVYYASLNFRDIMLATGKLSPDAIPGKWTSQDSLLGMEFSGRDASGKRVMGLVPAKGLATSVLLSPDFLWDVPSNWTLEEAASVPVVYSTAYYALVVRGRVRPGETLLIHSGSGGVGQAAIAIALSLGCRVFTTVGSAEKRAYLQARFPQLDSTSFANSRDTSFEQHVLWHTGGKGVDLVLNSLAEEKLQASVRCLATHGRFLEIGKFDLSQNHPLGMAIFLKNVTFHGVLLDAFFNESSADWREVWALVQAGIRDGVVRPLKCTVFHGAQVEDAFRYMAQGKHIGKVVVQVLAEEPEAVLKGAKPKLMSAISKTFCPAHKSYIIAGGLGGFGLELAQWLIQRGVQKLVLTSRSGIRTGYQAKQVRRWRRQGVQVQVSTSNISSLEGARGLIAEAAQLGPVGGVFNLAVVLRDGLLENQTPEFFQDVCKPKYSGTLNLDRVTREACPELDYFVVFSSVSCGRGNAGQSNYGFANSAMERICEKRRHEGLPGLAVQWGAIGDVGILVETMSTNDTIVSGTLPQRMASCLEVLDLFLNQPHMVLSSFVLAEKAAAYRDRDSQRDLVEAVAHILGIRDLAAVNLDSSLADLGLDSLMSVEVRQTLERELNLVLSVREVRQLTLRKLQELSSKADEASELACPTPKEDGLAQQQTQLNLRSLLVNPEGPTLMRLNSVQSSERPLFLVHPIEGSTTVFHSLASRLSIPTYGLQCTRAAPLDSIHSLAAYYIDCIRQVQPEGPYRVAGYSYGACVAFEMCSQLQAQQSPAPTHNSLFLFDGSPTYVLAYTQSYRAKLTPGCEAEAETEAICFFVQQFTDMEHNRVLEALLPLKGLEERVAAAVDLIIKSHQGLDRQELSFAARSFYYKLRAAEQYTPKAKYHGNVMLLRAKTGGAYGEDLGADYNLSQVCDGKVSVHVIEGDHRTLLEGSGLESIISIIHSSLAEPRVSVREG

O=P1(Oc2ccc(Cl)cc2Cl)Oc2cc3ccccc3cc2O1
GI50 (P388/ADR): 22.4 µM (inactive) | GI50 (P388): 14 µM (inactive) | GI50 (SN12K1): 59.4 µM (inactive)

NC(=O)c1csc(C2OC(CO)C(O)C2O)n1 (stereo not given)
GI50 (P388/ADR): 1.79 µM (inactive) | GI50 (P388): 1.86 µM (inactive) | GI50 (SN12K1): 77.8 µM (inactive)

CCCCSc1nc(O)c(C(=O)OCC)cc1C#N
IC50 (Protein skinhead-1): > 100 µM (inactive)

Cc1cccn2c(O)c(C(=O)NC3CCCCC3)c(=O)nc12
EC50 (H4): > 120 µM (not active) | EC50 [1]: > 120 µM (not active) | EC50 [2]: > 120 µM (not active)

Cc1c2cnccc2c(C)c2c1c1ccccc1n2CCCN
GI50 (P388/ADR): 0.157 µM (active) | GI50 (P388): 0.0931 µM (active) | GI50 (SN12K1): 0.222 µM (active)

O=C(c1cccc(F)c1)N1CC[C@H]2[C@H](CO)Nc3ccc(C#Cc4cccc(F)c4)cc3[C@H]21
AC50 [3]: 4.2 µM (active)

N#CC(OC1OC(COC2OC(CO)C(O)C(O)C2O)C(O)C(O)C1O)c1ccccc1 (stereo not given)
GI50 (P388/ADR): > 225 µM (inactive) | GI50 (P388): > 225 µM (inactive) | GI50 (SN12K1): > 225 µM (inactive)

CC(C)c1nnc(NC(=O)CCC(=O)N2CCN(c3ccc(Cl)cc3)CC2)s1
CC50 [4]: > 40 µM (active)

CC[C@](C)(O)C(=O)O[C@H]1C(=O)O[C@@H]2C[C@H]3C(C)=CC(=O)[C@@H](O)[C@]3(C)[C@H]3[C@@]4(O)OC[C@]32[C@@H]1[C@@H](C)[C@H]4O [GLAUCARUBINONE]
GI50 (P388/ADR): 0.664 µM (active) | GI50 (P388): 0.0676 µM (active) | GI50 (SN12K1): 0.05 µM (active)

FCCCOc1ccc(/C=N/OCc2ccc(Cl)cc2)cc1
IC50 (Protein skinhead-1): > 100 µM (inactive)

C/C=C/c1ccc([C@@H]2[C@H](CO)N(CC3CCCC3)C23CN(C(=O)CC2CC2)C3)cc1
AC50 [3]: 5.78 µM (active)

Cc1cc(N2CCCCC2)n2ncc(-c3ccc(Cl)cc3)c2n1
CC50 [4]: > 40 µM (active) | AC50 [5]: 4.92 µM (active)

CCOC(=O)c1c(NC(=O)CSc2nc3cc(OC)ccc3[nH]2)sc2c1CC(C)(C)NC2(C)C
CC50 [4]: 21.6 µM (active)

CC1=C(O)C(=O)[C@@H]2O[C@@H]2C1=O
GI50 (P388/ADR): 1.09 µM (active) | GI50 (P388): 0.542 µM (active) | GI50 (SN12K1): 11.1 µM (inactive)

CSCC[C@@H](NC(=O)[C@H](CC(C)C)NC(=O)C(Cc1cnc[nH]1)NC(=O)CNC(=O)[C@@H](NC(=O)[C@H](C)NC(=O)[C@H](Cc1c[nH]c2ccccc12)NC(=O)[C@H](CCC(N)=O)NC(=O)[C@@H](N)CC(N)=O)C(C)C)C(N)=O (stereo not given in full)
GI50 (P388/ADR): > 100 µM (inactive) | GI50 (P388): > 100 µM (inactive) | GI50 (SN12K1): > 100 µM (inactive)

COC(=O)c1cccc(CC2(C)C(=O)Nc3ccc(OC(F)(F)F)cc32)c1 (stereo not given)
IC50 (Protein skinhead-1): 88.5 µM (inactive)

O=C(NCCCc1ccccc1)c1cc([N+](=O)[O-])ccc1Cl
IC50 (Fatty acid synthase [6]): 1.1 µM (active) | IC50 (Fatty acid synthase [7]): 3.28 µM (active)

CCOC(=O)c1ccc(-c2ccc(/C=N/NC(=O)CN(c3ccccc3Cl)S(C)(=O)=O)o2)cc1
EC50 (H4): 33.3 µM (active) | EC50 [1]: 14.3 µM (active) | EC50 [8]: 37.6 µM (active) | EC50 [9]: 29.4 µM (active) | EC50 [2]: 28.6 µM (active)

C#CCn1/c(=N/C(=O)c2cc(Cl)sc2Cl)sc2cc(S(N)(=O)=O)ccc21
CC50 [4]: > 40 µM (active) | EC50 (Streptococcus): > 150 µM (not active) | EC50 (Streptokinase A): > 150 µM (not active) | EC50 [10]: 14 µM (active)

CCC(=O)Nc1ccc2c(c1)C(=O)N(C)C[C@H](OC)[C@H](C)CN(Cc1cccc(F)c1)[C@@H](C)CO2
AC50 [3]: 11.3 µM (active)
